Results as given in patent US10106542B2, “Substituted 6,7-dihydropyrazolo[1,5-a]pyrazines as negative allosteric modulators of mGluR2 receptors” (Janssen Pharmaceutica NV, priority 2013, dated 2018).

Target: T1, human mGlu2 receptor (Homo sapiens, UniProt Q14416)
T1 construct: expressed in transfected cells; host or cells: CHO cells (membrane preparation)
Experiment: [35S]GTPγS binding assay (mGluR2 negative allosteric modulation)
Format: biochemical
Summary of the method: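 Membranes from butyrate-stimulated CHO cells expressing human mGlu2; 7 μg protein in HEPES pH 7.4, 100 mM NaCl, 3 mM MgCl2, 10 μM GDP, 10 μg/ml saponin. Compound tested against EC80-equivalent glutamate; 0.1 nM [35S]GTPγS, 30 min, 30 °C; filtration, scintillation counting. Data as % of control glutamate response.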

T1 sequence (Q14416 19-872): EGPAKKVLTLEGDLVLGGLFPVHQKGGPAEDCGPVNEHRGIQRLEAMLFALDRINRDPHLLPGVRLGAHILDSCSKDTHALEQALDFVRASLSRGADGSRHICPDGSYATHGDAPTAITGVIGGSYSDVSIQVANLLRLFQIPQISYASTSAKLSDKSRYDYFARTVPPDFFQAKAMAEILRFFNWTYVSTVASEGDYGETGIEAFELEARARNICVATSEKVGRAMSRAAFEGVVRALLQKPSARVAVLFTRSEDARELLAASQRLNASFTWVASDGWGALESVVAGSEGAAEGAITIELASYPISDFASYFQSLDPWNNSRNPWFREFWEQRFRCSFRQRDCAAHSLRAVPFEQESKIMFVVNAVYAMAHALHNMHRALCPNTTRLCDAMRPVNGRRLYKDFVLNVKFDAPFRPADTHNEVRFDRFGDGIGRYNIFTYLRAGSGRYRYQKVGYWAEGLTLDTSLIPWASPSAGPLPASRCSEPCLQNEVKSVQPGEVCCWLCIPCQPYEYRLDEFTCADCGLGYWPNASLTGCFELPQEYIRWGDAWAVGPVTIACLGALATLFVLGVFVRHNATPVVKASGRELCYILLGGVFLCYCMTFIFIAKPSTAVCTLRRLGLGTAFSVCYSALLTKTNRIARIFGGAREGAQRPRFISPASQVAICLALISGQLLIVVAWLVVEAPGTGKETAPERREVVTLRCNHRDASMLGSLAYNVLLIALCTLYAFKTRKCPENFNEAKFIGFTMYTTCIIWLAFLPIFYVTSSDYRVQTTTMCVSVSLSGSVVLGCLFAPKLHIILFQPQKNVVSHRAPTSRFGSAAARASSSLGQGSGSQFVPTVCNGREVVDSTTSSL

- GTPγS - hmGluR2 anGT pIC50 (membranes from CHO cells transfected with human mGlu2 receptor, glutamate 60 μM, pIC50 = −log IC50 (M)): 8.05
- Emax (relative maximal effect: maximal % inhibition relative to the control glutamate response, read-out: GTPγS - hmGluR2 anGT Emax): 106%
Structure (SMILES): Cc1cc(-c2cnn3c2C(=O)N(c2ccc(C(F)(F)F)cc2)C[C@@H]3C)ccn1 [compound 1, (7S)-7-Methyl-3-(2-methylpyridin-4-yl)-5-[4-(trifluoromethyl)phenyl]-6,7-dihydropyrazolo[1,5-a]pyrazin-4(5H)-one]
